Source: ChEMBL document CHEMBL1148552, “Pulvinones as bacterial cell wall biosynthesis inhibitors” (Bioorg Med Chem Lett, 2006)
Converted amounts (≈) assume the structure as drawn.

Assays:
[1] = tested on: Staphylococcus aureus; test: Antibacterial activity against methicillin resistant Staphylococcus aureus; format: functional; details: GC 1131
[2] = tested on: Staphylococcus aureus; test: Antibacterial activity against Staphylococcus aureus; format: functional; details: GC 4543
[3] = tested on: Enterococcus faecalis; test: Antibacterial activity against Enterococcus faecalis; format: functional; details: GC 4555
[4] = tested on: Enterococcus faecalis; test: Antibacterial activity against vancomycin resistant Enterococcus faecalis; format: functional; details: GC 2242
[5] = tested on: Streptococcus pneumoniae; test: Antibacterial activity against penicillin resistant Streptococcus pneumoniae; format: functional; details: GC 1894
[6] = molecular target: UDP-N-acetylglucosamine 1-carboxyvinyltransferase (Escherichia coli K-12, UniProt P0A749); test: Inhibitory activity against MurA in Escherichia coli
UDP-N-acetylglucosamine 1-carboxyvinyltransferase, sequence (P0A749 whole entry): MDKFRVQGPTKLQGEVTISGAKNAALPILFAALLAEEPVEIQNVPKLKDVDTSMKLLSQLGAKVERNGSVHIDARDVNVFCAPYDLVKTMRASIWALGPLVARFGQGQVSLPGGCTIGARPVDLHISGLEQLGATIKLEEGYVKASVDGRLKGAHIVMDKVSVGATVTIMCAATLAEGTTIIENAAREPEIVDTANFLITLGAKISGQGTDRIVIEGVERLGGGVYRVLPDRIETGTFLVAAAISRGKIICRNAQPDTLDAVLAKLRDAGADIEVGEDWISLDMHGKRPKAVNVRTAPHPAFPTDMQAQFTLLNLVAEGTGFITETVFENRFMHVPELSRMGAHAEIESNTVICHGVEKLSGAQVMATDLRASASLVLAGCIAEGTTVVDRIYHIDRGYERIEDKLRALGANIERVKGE

[7] = molecular target: T1, UDP-N-acetylenolpyruvoylglucosamine reductase (Escherichia coli K-12, UniProt P08373); test: Inhibitory activity against MurB in Escherichia coli
T1 sequence (P08373 whole entry): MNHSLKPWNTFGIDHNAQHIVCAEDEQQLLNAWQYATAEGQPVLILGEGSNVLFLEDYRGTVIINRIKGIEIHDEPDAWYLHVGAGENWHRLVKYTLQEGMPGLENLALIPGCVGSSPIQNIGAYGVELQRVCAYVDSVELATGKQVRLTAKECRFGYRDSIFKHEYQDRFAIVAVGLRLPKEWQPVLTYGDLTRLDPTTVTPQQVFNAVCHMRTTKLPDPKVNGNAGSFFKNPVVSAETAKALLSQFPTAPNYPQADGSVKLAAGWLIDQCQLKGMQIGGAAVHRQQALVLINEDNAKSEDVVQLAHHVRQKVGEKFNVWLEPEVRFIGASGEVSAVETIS

[8] = molecular target: T2, UDP-N-acetylmuramate--L-alanine ligase (Staphylococcus aureus, UniProt O31211); test: Inhibitory activity against MurC in Staphylococcus aureus
T2 sequence (O31211 whole entry): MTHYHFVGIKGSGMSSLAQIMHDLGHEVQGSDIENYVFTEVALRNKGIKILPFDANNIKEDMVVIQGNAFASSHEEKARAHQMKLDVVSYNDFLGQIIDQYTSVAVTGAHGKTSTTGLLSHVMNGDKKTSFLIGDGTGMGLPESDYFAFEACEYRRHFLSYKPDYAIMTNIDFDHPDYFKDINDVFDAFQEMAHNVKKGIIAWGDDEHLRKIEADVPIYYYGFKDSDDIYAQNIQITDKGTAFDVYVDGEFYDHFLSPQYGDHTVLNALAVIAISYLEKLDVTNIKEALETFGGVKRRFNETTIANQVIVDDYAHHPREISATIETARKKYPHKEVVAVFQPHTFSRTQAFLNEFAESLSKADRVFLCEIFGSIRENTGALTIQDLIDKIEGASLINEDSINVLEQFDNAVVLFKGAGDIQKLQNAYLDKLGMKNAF

[9] = molecular target: T3, UDP-N-acetylmuramoylalanine--D-glutamate ligase (Staphylococcus aureus, UniProt P0A091); test: Inhibitory activity against MurD in Staphylococcus aureus
T3 sequence (P0A091 whole entry): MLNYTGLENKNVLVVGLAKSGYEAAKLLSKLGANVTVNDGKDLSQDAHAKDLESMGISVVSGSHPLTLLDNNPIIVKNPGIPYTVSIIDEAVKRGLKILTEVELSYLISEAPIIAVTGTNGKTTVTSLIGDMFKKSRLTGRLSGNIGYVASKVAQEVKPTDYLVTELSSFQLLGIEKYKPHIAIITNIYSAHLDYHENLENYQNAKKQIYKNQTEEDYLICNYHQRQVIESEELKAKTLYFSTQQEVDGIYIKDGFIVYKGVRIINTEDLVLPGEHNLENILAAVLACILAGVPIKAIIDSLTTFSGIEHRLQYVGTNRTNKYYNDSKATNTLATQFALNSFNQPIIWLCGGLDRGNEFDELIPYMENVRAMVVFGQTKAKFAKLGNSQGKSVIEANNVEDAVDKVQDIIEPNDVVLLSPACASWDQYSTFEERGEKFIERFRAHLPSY

[10] = molecular target: T4, UDP-N-acetylglucosamine 1-carboxyvinyltransferase 1 (Staphylococcus aureus subsp. aureus N315, UniProt P84058); test: Inhibitory activity against MurA in Staphylococcus aureus
T4 sequence (P84058 whole entry): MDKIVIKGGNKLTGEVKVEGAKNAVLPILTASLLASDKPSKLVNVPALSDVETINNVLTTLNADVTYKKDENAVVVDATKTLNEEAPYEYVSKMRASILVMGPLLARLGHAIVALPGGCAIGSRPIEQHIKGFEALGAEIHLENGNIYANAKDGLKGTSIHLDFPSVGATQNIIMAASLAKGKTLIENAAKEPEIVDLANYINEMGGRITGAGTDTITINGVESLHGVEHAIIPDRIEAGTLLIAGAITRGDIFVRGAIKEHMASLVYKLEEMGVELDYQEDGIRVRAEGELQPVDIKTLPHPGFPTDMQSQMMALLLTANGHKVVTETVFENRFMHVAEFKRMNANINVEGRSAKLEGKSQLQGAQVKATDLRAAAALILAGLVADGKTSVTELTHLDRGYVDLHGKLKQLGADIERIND

Row | SMILES | MIC [1] [µg/mL] | MIC [2] [µg/mL] | MIC [3] [µg/mL] | MIC [4] [µg/mL] | MIC [5] [µg/mL] | IC50 [6] [µM] | IC50 [7] [µM] | IC50 [8] [µM] | IC50 [9] [µM] | IC50 [10] [µM]
1 | Cc1cc(/C=C2\OC(O)=C(c3cccc(Cl)c3)C2=O)ccc1-c1ccccc1C(F)(F)F | 2 (≈ 4.38 µM) | 1 (≈ 2.19 µM) | 4 (≈ 8.76 µM) | 2 (≈ 4.38 µM) | ≤ 0.12 | 8.76 | 6.57 | 32.8 | 26.3 | –
2 | Cc1cc(/C=C2\OC(O)=C(c3cc(Cl)cc(Cl)c3)C2=O)ccc1-c1ccccc1C(F)(F)F | 0.5 (≈ 1.02 µM) | 0.5 (≈ 1.02 µM) | 2 (≈ 4.07 µM) | 1 (≈ 2.04 µM) | 0.5 (≈ 1.02 µM) | – | 6.11 | > 50.9 | 48.9 | 4.07
